Data set [1] is described as follows: Relative chemical stability of polymorph I over 4 weeks under storage (HPLC purity). Format: physicochemical. The note with it: for HPLC purity: week 0; for HPLC purity at 336 h / HPLC purity at 672 h: solid storage; for HPLC purity at 336 h: week 2; for HPLC purity at 672 h: week 4.
Data set [2] can be described thus: Hygroscopicity: water sorption/desorption in an automated water sorption analyser, 25 ℃. The format is physicochemical.
For data set [3], the system named is human neutrophils [인간 호중구]. Particulars: through human endothelial cells and epithelial cells, e.g. human intestinal epithelial cell line T84; literature; cited from earlier work.

On to `O=C(O)COC[C@H](O)[C@H](O)/C=C/C=C/C#C/C=C/[C@H](O)COc1ccc(F)cc1` [다형체 I, 2-((2S,3R,4E,6E,10E,12S)-13-(4-플루오로페녹시)-2,3,12-트리히드록시트리데카-4,6,10-트리엔-8-이닐옥시)아세트산], for which the HPLC purity turned out to be 97.36% in data set [1] (25 ℃, dry); 97.36% in data set [1] (25 ℃/60%RH); 97.36% in data set [1] (40 ℃, dry); 97.36% in data set [1] (40 ℃/75%RH). Further, the HPLC purity at 336 h in data set [1] (25 ℃, dry) stood at 97.5%; in data set [1] (25 ℃/60%RH), 97.5%; in data set [1] (40 ℃, dry) it was 96.9%; in data set [1] (40 ℃/75%RH), 95.9%. The HPLC purity at 672 h in data set [1] (25 ℃, dry) stood at 97.5%; in data set [1] (25 ℃/60%RH), 97.7%; in data set [1] (40 ℃, dry) it was 96.4%; in data set [1] (40 ℃/75%RH) it was 92.5%. In data set [2] (80% relative humidity, corresponds to the dihydrate of the substance), this compound had a moisture adsorbed of about 8%. In addition, the hygroscopicity entry in data set [2] (in words) is on record as “흡습성”. For the same compound, the reversibility of hydration entry in data set [2] (in words) was “가역적”. Further, the “relative humidity at which polymorph I transforms into the hydrate” value in data set [2] (relative humidity) is listed as over 60%.
Take `O=C(O)COC[C@H](O)[C@H](O)/C=C/C=C/C#C/C=C/[C@H](O)COc1ccc(F)cc1` [수화물, 2-((2S,3R,4E,6E,10E,12S)-13-(4-플루오로페녹시)-2,3,12-트리히드록시트리데카-4,6,10-트리엔-8-이닐옥시)아세트산]: in data set [2] (relative humidity, reversal of hydration), the “relative humidity at which transformation into polymorph I is observed” value was under 40%.
In the case of `CCCCC[C@H](O)/C=C/C=C\C=C\C=C\[C@@H](O)[C@@H](O)CCCC(=O)O` [리폭신 A4], the “inhibition of transmigration of human neutrophils” value in data set [3] is on record as “억제한다”.

The values are drawn from patent KR20110010755A, “결정질 2-((2s,3r,4e,6e,10e,12s)-13-(4-플루오로페녹시)-2,3,12-(트리히드록시트리데카-4,6,10-트리엔-8-이닐)옥시)아세트산의 무수물 및 수화물 형태” (바이엘 쉐링 파마 악티엔게젤샤프트, priority 2008, dated 2009).
